Measured values taken from patent US10201564B2, “Methods of using inhaled nitric oxide gas for treatment of acute respiratory distress syndrome in children” (Mallinckrodt Hospital Products IP Limited, priority 2014, dated 2019).

Test system: patients with moderately severe Acute Lung Injury (ALI)
Experiment: Adult ALI/ARDS study, 5 ppm iNO versus placebo: efficacy and respiratory parameters
Type: in vivo, human
Conditions: for mortality, benefit versus control: adults
Procedure: A large-scale, randomized, blinded, placebo-controlled study was carried out in the Intensive Care Units (ICUs) of 46 US hospitals to evaluate the efficacy of low-dose (5 ppm) iNO in 385 patients with moderately severe Acute Lung Injury (ALI). The primary endpoint of this study was number of days alive and off assisted breathing.
Patients had acute lung injury (ALI), defined by a modification of American-European Consensus Conference criteria (PaO2/inspired oxygen concentration [FiO2] ratio of ≤250 mm Hg), due to causes other than severe sepsis. Patients with evidence of non-pulmonary system failure at the time of randomization and sepsis-induced ARDS were excluded. Patients were also excluded if they had sustained hypotension requiring vasopressor support, hemodynamic profiles supporting severe sepsis, severe head injury, severe burns, or evidence of other significant organ system dysfunction at baseline.
Patients were randomly assigned to receive either inhaled placebo gas (nitrogen) or 5 ppm of iNO (INO Therapeutics Inc., Port Allen, La.). All patients, healthcare professionals, and investigators were blinded to the assigned treatment. Inhaled NO was administered via INOvent® delivery system (Datex-Ohmeda, Madison, Wis.) that blended treatment gas (nitrogen or NO at 100-ppm balance nitrogen) 1:20 with ventilator gases to achieve a target ppm value in the inspiratory limb of the ventilator.
All patients using the iNO delivery system received mechanical ventilatory support. Treatment continued with active or placebo gas until one of the following criteria were met: [1] end of trial (28 days); [2] death; or [3] adequate oxygenation (arterial oxygen saturation by pulse oximetry [SpO2]≥92% or PaO2 of ≥63 mm Hg) without treatment gas at ventilator settings of FiO2≤0.4 and positive end-expiratory pressure (PEEP) of ≤5 cm H2O. Decreases in treatment gas continued in 20% decrements (titrated down by 1 ppm for inhaled NO) every 30 minutes until either the treatment gas concentration reached 0% or oxygenation criteria were not satisfied. If oxygenation criteria were not met, treatment gas concentration was titrated up until they were again achieved. Increments of upward titration were determined by the clinician, based on degree of arterial desaturation.
Baseline oxygenation measures included PaO2, arterial partial pressure of CO2 (PaCO2), SpO2, FiO2, PEEP, PaO2/FiO2 ratio, […], tidal volume, and mean airway pressure. Respiratory parameters (FiO2, PEEP, and PaO2/FiO2 ratio) were recorded on case report forms every 12 hours during mechanical ventilation.
Between-group differences in baseline clinical and demographic characteristics were assessed with the Fisher's exact test and the chi-square test for categorical variables and with the Wilcoxon rank sum test for continuous variables. Baseline oxygenation and respiratory/oxygenation parameters in the two groups were compared using Wilcoxon rank sum tests. The areas under the curve (AUCs) of FiO2, PEEP, and PaO2/FiO2 ratio were calculated using the trapezoidal rule. The null hypothesis that the respective AUCs were normally distributed was rejected employing the Shapiro-Wilk test. A Wilcoxon rank sum test was utilized to assess the differences in each median AUC between treatment groups. A p value <0.05 was considered significant.

## [N]=O [Nitric Oxide, nitric oxide]
5 ppm iNO vs nitrogen gas, intent-to-treat
  days alive and meeting oxygenation criteria for extubation, benefit versus control: no significant benefit
5 ppm iNO vs nitrogen gas, intent-to-treat, listed as Inhaled NO
  mortality, benefit versus control: did not improve
5 ppm iNO vs nitrogen gas, intent-to-treat, listed as iNO
  mortality, benefit versus control: no significant benefit
During mechanical ventilation, iNO vs placebo
  aggregate per-patient changes from baseline in supplemental oxygen, PEEP, or PaO2/FiO2 ratio, between groups: no significant differences
Initial 24 hours of treatment, resolved by 48 hours, p<0.05
  partial pressure of arterial oxygen (PaO2): significant increase
Primary endpoint, 5 ppm iNO vs nitrogen gas, intent-to-treat
  days alive and off assisted breathing, benefit versus control: no significant benefit
